Reference: patent US9149038B2, “4-amino-6-(heterocyclic)picolinates and 6-amino-2-(heterocyclic)pyrimidine-4-carboxylates and their use as herbicides” (Dow AgroSciences LLC, priority 2013, dated 2015)
Like-named read-outs stand apart in the source and are kept apart here.

Columns and labels:
[1] = system: Key Grass and Sedge Weeds as well as Grass Crops; test: Post-Emergent Test II: postemergent herbicidal activity, visual rating after 14 d (Table 8); assay type: in vivo; conditions: post-emergence, 336 h; for pest or weed control at 35 g/ha: 35 g ai/ha; for pest or weed control at 70 g/ha: 70 g ai/ha; for pest or weed control at 140 g/ha: 140 g ai/ha
Procedure, shortened: (§1)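 Greenhouse-grown plants at the first or second true leaf stage (7-21 d, ~15 h photoperiod, 23-29° C day) were sprayed with compound in acetone/DMSO-based aqueous spray containing crop oil concentrate and Triton X-155 at 187 L/ha. Injury versus untreated plants was rated visually after 14 d on a 0-100 scale.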

[2] = system: Key Broadleaf Weed and Crop Species; test: Post-Emergent Test II: postemergent herbicidal activity, visual rating after 14 d (Table 7); assay type: in vivo; conditions: post-emergence, 336 h; for pest or weed control at 35 g/ha: 35 g ai/ha; for pest or weed control at 70 g/ha: 70 g ai/ha; for pest or weed control at 140 g/ha: 140 g ai/ha
Procedure, shortened: as §1

[3] = barnyardgrass (Echinochloa crus-galli), read-out: Visual Growth Reduction (%) 14 Days After Application, ECHCG
[4] = giant foxtail (Setaria faberi), read-out: Visual Growth Reduction (%) 14 Days After Application, SETFA
[5] = maize, corn (Zea mays), read-out: Visual Growth Reduction (%) 14 Days After Application, ZEAMX
[6] = rice (Oryza sativa), read-out: Visual Growth Reduction (%) 14 Days After Application, ORYSA
[7] = wheat, spring (Triticum aestivum), read-out: Visual Growth Reduction (%) 14 Days After Application, TRZAS
[8] = yellow nutsedge (Cyperus esculentus), read-out: Visual Growth Reduction (%) 14 Days After Application, CYPES
[9] = ABUTH: velvetleaf (Abutilon theophrasti), read-out: Visual Growth Reduction (%) 14 Days After Application ABUTH
[10] = BRSNN: oilseed rape, canola (Brassica napus), read-out: Visual Growth Reduction (%) 14 Days After Application BRSNN
[11] = CHEAL: lambsquarters (Chenopodium album), read-out: Visual Growth Reduction (%) 14 Days After Application CHEAL
[12] = EPHHL: wild poinsettia (Euphorbia heterophylla), read-out: Visual Growth Reduction (%) 14 Days After Application EPHHL
[13] = HELAN: sunflower (Helianthus annuus), read-out: Visual Growth Reduction (%) 14 Days After Application HELAN

For `COC(=O)c1nc(-c2cccc3c2OCC3)c(F)c(N)c1Cl` [Compound 102], the pest or weed control at 35 g/ha [1, 3] was 0 to 29%, the pest or weed control at 70 g/ha [1, 3] was 0 to 29% and the pest or weed control at 140 g/ha [1, 3] was 0 to 29%. The pest or weed control at 35 g/ha [1, 4] was 0 to 29%, the pest or weed control at 70 g/ha [1, 4] was 0 to 29% and the pest or weed control at 140 g/ha [1, 4] was 0 to 29%. For the same compound, the pest or weed control at 35 g/ha [1, 5] was 0 to 29%, the pest or weed control at 70 g/ha [1, 5] was 0 to 29% and the pest or weed control at 140 g/ha [1, 5] was 0 to 29%. It also gave a pest or weed control at 35 g/ha [1, 6] of 0 to 29%, a pest or weed control at 70 g/ha [1, 6] of 0 to 29% and a pest or weed control at 140 g/ha [1, 6] of 0 to 29%. The pest or weed control at 35 g/ha [1, 7] was 0 to 29%, the pest or weed control at 70 g/ha [1, 7] was 0 to 29% and the pest or weed control at 140 g/ha [1, 7] was 0 to 29%. For the same compound, the pest or weed control at 35 g/ha [1, 8] was 0 to 29%, the pest or weed control at 70 g/ha [1, 8] was 0 to 29% and the pest or weed control at 140 g/ha [1, 8] was 0 to 29%. For the same compound, the pest or weed control at 35 g/ha [2, 9] was 0 to 29%, the pest or weed control at 70 g/ha [2, 9] was 0 to 29% and the pest or weed control at 140 g/ha [2, 9] was 45 to 59%. For the same compound, the pest or weed control at 35 g/ha [2, 10] was 0 to 29%, the pest or weed control at 70 g/ha [2, 10] was 0 to 29% and the pest or weed control at 140 g/ha [2, 10] was 0 to 29%. It also gave a pest or weed control at 35 g/ha [2, 11] of 95 to 100%, a pest or weed control at 70 g/ha [2, 11] of 95 to 100% and a pest or weed control at 140 g/ha [2, 11] of 95 to 100%. It also gave a pest or weed control at 35 g/ha [2, 12] of 0 to 29%, a pest or weed control at 70 g/ha [2, 12] of 0 to 29% and a pest or weed control at 140 g/ha [2, 12] of 0 to 29%. The pest or weed control at 35 g/ha [2, 13] was 75 to 84%, the pest or weed control at 70 g/ha [2, 13] was 85 to 94% and the pest or weed control at 140 g/ha [2, 13] was 85 to 94%.
